# Source: ChEMBL document CHEMBL3882721, “2-phenyl benzimidazoles and imidazo-4,5|-pyridines as CDS1/CHK2-inhibitors and adjuvants to chemotherapy or radiation therapy in the treatment of cancer” (2007)
# Activity calls are given as the source filed them. The calls are words filed in the database; no cut-off is given here.
# System: spleen
# Test: Cytoprotective activity against 137Cs gamma-radiation-induced apoptosis in C57/BL6 mouse spleen cells preincubated for 1 hr followed by irradiation measured after 6 to 24 hrs by annexin V/FITC-propidium iodide staining-based FACS analysis
# Type: functional, cell-based
row,SMILES,Activity
1,COc1cccc(Sc2ccc(-c3nc4cc(C(N)=O)ccc4[nH]3)cc2)c1,Active
2,NC(=O)c1ccc2[nH]c(-c3ccc(Oc4ccc5ccccc5c4)cc3)nc2c1,Active
3,NC(=O)c1ccc2[nH]c(-c3ccc(Oc4ccc(Br)c(O)c4)cc3)nc2c1,Active
4,COc1cc(Oc2ccc(-c3nc4cc(C(N)=O)ccc4[nH]3)cc2)ccc1Br,Active
5,COc1ccc(Sc2ccc(-c3nc4cc(C(N)=O)ccc4[nH]3)cc2)cc1,Active
6,NC(=O)c1ccc2[nH]c(-c3ccc(Oc4ccc(I)cc4)cc3)nc2c1,Active
7,NC(=O)c1ccc2[nH]c(-c3ccc(Sc4ccc(O)cc4)cc3)nc2c1,Active
8,NC(=O)c1ccc2[nH]c(-c3ccc(Oc4ccc5c(c4)OCO5)cc3)nc2c1,Active
9,NC(=O)c1ccc2[nH]c(-c3ccc(Sc4ccc(F)c(Cl)c4)cc3)nc2c1,Active
10,NC(=O)c1ccc2[nH]c(-c3ccc(Oc4ccc(Cl)cc4)cc3)nc2c1,Active
11,NC(=O)c1ccc2[nH]c(-c3ccc(Sc4ccc(Cl)cc4)nc3)nc2c1,Active
12,NC(=O)c1ccc2[nH]c(-c3ccc(Oc4ccc(Br)cc4)cc3)nc2c1,Active
13,Cc1ccc(Sc2ccc(-c3nc4cc(C(N)=O)ccc4[nH]3)cn2)cc1,Active

# System: not listed separately
# Test: Anticlonogenic activity against ionizing radiation/chemotherapeutic agent-treated clonogenic tumor cells (unknown origin) preincubated for 12 to 48 hrs followed by growth medium addition without compound measured after 7 to 14 days by crystal violet staining-based assay relative to control
# Type: functional
row,SMILES,Activity
1,NC(=O)c1ccc2[nH]c(-c3ccc(Oc4ccc(Cl)cc4)cc3)nc2c1,Active
